# Data from patent publication US9427415B2, “Methods and compositions for modifying sensorial perception” (The Procter & Gamble Company, priority 2014, dated 2016).
# Like-named read-outs stand apart in the source and are kept apart here.
# Tests used:
# [1] = test system: TRPA1V1; experiment: Intracellular calcium (Fluo-4, FLIPR) activation of TRPA1V1 cells (co-expressing TRPA1 and TRPV1) by GRAS compounds; format: cell-based, human;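 also: HEK293 cells co-expressing TRPA1 and TRPV1, fluorescence read at 488/514 nm after baseline subtraction, recorded every 2 s over 10 min, ionomycin 10 µM and buffer as controls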
# Protocol: TRPV1, TRPA1, TRPA1V1 and pcDNA3 cells were grown in 15 mL growth medium [high glucose DMEM (Dulbecco's modification of Eagle's medium) supplemented with 10% FBS (fetal bovine serum), 100 μg/mL penicillin/streptomycin, 100 μg/mL G418] in a 75 cm^2 flask for 3 days in a mammalian cell culture incubator at 33° C. and 5% CO2. TRP Cells were detached with 8 mL of PBS (without calcium or magnesium); for pcDNA3 cells, trypsin was used for releasing the cells. The detached cells were spun at low speed (800-900 rpm for 3 min) to pellet the cells. […] The cells were washed once with 45 mL assay buffer (1×HBSS, 20 mM HEPES) by low speed centrifugation (800-900 rpm for 3 min) and resuspended in 11 mL of the assay buffer in a reagent reservoir. […] The plates were set at room temperature for 30 min. The plates were read in a FLIPR^TETRA instrument (Molecular Devices, Sunnyvale, Calif.) at λex 488 nm and λem 514 nm to record baseline fluorescence following which 20 μL of test material at 1 mM or 100 μM final concentration for pure compounds in a GRAS library or 0.004% for extracts. For agonists, capsaicin 350 nM and AITC at 30 μM; and for controls, ionomycin 10 μM and buffer alone) was added to each well using the dispenser provided in the FLIPR. The data point was recorded every 2 seconds for a total of 10 min.
# Average value for activation from three independent assay plates are presented as % of agonist value (AITC, 30 μM for TRPA1 and capsaicin, 350 nM for TRPV1. For TRPA1V1, we used AITC, 30 μM or capsaicin, 350 nM depending on if the compound is an A1 agonist or a V1 agonist. For compounds that activated both A1 and V1, we used AITC for normalization). Variation among triplicates was within 10% of each other. Assayed at 1 mM for pure compounds and 0.004% for extracts.
# [2] = target: T1, human TRPV1 (Homo sapiens, UniProt Q8NER1, M315I/T336M); experiment: Intracellular calcium (Fluo-4, FLIPR) activation of TRPV1 cells by GRAS compounds; format: cell-based; details: relative to capsaicin 350 nM; for activation at 1000 µM / activation at 100 µM: read-out: V1 activation, % of agonist value;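 as to all read-outs here: TRPV1-expressing cells, FLIPR fluorescence at 488/514 nm with baseline subtracted, sampled every 2 s for 10 min after adding compound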
# T1 construct: expressed in transfected cells; pcDNA3 control cells
# T1 sequence (Q8NER1 whole entry M315I/T336M): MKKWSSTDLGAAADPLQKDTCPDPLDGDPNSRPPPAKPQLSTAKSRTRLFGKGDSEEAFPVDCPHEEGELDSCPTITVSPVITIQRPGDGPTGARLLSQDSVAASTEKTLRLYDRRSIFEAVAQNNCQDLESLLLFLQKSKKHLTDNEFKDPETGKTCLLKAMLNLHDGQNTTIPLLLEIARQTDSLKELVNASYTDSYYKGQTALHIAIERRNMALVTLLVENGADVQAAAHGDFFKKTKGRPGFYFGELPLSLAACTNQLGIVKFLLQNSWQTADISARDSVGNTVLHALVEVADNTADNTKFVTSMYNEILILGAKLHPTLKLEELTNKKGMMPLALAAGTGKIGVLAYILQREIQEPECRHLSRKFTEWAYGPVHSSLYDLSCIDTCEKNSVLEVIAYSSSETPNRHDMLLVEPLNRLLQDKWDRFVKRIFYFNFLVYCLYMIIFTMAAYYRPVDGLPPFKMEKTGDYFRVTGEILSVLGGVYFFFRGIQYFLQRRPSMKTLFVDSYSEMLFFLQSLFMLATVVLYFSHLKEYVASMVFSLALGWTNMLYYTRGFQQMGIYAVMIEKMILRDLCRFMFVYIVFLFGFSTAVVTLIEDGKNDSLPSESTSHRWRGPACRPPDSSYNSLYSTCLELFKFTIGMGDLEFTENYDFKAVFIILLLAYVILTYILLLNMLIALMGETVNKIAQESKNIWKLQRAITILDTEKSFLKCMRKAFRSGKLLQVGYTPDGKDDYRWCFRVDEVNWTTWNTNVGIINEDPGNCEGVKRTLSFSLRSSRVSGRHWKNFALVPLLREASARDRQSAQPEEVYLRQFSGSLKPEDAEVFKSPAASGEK
# [3] = target: T2, human TRPA1 (Homo sapiens, UniProt O75762, K186N/R3C/R58T); experiment: Intracellular calcium (Fluo-4, FLIPR) activation of TRPA1 cells by GRAS compounds; format: cell-based; details: relative to AITC 30 μM; for activation at 1000 µM / activation at 100 µM: read-out: A1 activation, % of agonist value;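 as to all read-outs here: TRPA1-expressing cells, fluorescence read on a FLIPR Tetra (ex 488 nm, em 514 nm) every 2 s for 10 min after compound addition, baseline subtracted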
# T2 construct: expressed in transfected cells; pcDNA3 control cells
# T2 sequence (O75762 whole entry R3C/R58T/K186N): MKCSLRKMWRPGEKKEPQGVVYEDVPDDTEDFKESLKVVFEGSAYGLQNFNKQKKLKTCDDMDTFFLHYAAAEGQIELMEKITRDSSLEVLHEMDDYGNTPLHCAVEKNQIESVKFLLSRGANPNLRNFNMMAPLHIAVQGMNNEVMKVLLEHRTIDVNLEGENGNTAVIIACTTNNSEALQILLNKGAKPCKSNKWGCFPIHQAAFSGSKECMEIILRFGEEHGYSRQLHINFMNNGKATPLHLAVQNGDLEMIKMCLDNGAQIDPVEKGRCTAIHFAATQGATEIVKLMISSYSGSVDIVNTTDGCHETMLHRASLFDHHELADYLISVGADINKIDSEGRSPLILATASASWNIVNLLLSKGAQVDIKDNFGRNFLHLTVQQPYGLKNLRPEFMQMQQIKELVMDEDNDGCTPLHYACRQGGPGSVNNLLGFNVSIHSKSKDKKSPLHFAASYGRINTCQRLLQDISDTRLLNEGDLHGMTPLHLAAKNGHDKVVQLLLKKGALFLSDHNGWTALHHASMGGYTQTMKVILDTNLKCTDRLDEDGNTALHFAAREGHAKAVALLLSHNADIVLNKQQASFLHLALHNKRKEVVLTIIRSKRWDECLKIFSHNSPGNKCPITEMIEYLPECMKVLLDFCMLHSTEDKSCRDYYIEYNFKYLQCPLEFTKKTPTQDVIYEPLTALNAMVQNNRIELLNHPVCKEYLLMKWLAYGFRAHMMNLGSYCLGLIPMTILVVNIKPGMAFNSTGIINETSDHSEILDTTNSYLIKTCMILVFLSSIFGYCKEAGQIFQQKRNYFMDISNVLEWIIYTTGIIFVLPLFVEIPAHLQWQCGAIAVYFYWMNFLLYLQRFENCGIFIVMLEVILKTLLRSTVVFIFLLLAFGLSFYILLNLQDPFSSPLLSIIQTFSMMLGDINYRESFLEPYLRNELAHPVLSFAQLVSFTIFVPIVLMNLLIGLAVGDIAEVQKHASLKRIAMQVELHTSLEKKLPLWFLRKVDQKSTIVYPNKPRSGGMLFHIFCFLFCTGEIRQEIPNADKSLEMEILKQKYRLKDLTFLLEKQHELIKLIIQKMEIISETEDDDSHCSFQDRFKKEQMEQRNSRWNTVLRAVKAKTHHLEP
# [4] = Table 1(f), 1 mM, relative to capsaicin 350 nM
# [5] = Table 1(g), 1 mM, relative to capsaicin 350 nM
# [6] = Table 1(h), 1 mM, relative to capsaicin 350 nM
# [7] = Table 1(h), 100 μM (marked *), relative to capsaicin 350 nM
# [8] = Table 1(c), 1 mM, relative to AITC 30 μM
# [9] = Table 1(e), 1 mM, relative to AITC 30 μM
# [10] = Table 1(c), 100 μM (*), relative to AITC 30 μM
# [11] = Table 1(d), 1 mM, relative to AITC 30 μM
compound,measurement,setting,value
"O=CC(=Cc1ccco1)c1ccccc1 [2-Furanacrolein, alpha-phenyl-]","A1V1 activation, % of agonist value",[1]; [4],66.2%
same,"V1 activation, % of agonist value","[2]; Table 1(f), 1 mM",55.7%
CC(=O)CC(=O)OCC(C)C [Isobutyle acetoacetate],"A1V1 activation, % of agonist value",[1]; [5],81.9%
same,"V1 activation, % of agonist value","[2]; Table 1(g), 1 mM",54.1%
Cc1ccc(C=O)c(O)c1 [m-Homosalicylaldehyde],"A1V1 activation, % of agonist value",[1]; [5],140.7%
same,activation at 1000 µM,"[2]; Table 1(g), 1 mM",56.5%
CC(C)c1ccccc1O [2-Isopropylphenol],"A1V1 activation, % of agonist value",[1]; [6],83.5%
same,activation at 1000 µM,"[2]; Table 1(h), 1 mM",108%
CCc1ccc(C=O)cc1 [4-Ethylbenzaldehyde],"A1V1 activation, % of agonist value",[1]; [5],120.3%
same,activation at 1000 µM,"[2]; Table 1(g), 1 mM",56.3%
CCCCCc1cccc(=O)o1 [6-Pentyl-alpha-pyrone],"A1V1 activation, % of agonist value",[1]; [5],95.2%
same,"V1 activation, % of agonist value","[2]; Table 1(g), 1 mM",66.1%
O=C(O)CCCCC(=O)O [Adipic acid],"A1V1 activation, % of agonist value",[1]; [5],70.4%
same,activation at 1000 µM,"[2]; Table 1(g), 1 mM",47.6%
CC(=O)CCc1ccc(OC(C)=O)cc1 [4-(p-Acetoxyphenyl)-2-butanone],"A1V1 activation, % of agonist value",[1]; [5],91.8%
same,activation at 1000 µM,"[2]; Table 1(g), 1 mM",58.9%
COc1ccccc1 [Anisole],"A1V1 activation, % of agonist value",[1]; [7],34.7%
same,activation at 100 µM,"[2]; Table 1(h), 100 μM (marked *)",48.3%
Tolylaldehyde glyceryl acetyl,"A1V1 activation, % of agonist value",[1]; [5],110.7%
same,"V1 activation, % of agonist value","[2]; Table 1(g), 1 mM",53.0%
CC(=O)c1ccc(C)cc1 [4′-Methylacetophenone],"A1V1 activation, % of agonist value",[1]; [5],136.6%
same,activation at 1000 µM,"[2]; Table 1(g), 1 mM",55%
O=C(O)C(O)C(O)C(=O)O (stereo not shown) [Tartaric acid],"A1V1 activation, % of agonist value",[1]; [6],29.6%
same,activation at 1000 µM,"[2]; Table 1(h), 1 mM",55.8%
CSCc1ccco1 [Furfuryl methyl sulfide],"A1V1 activation, % of agonist value",[1]; [5],111.6%
same,activation at 1000 µM,"[2]; Table 1(g), 1 mM",50.1%
CCCCCCCCCC1CCCC(=O)O1 (stereo not shown) [Delta-tetradecalactone],"A1V1 activation, % of agonist value",[1]; [5],61.7%
same,"V1 activation, % of agonist value","[2]; Table 1(g), 1 mM",33.0%
CC(C=O)=Cc1ccccc1 [alpha-Methylcinnamaldehyde],"A1V1 activation, % of agonist value",[1]; [5],104.4%
same,activation at 1000 µM,"[2]; Table 1(g), 1 mM",54.6%
"C=CCSCC=C [1-Propene, 3,3′-thiobis-]","A1V1 activation, % of agonist value",[1]; [5],108.4%
same,activation at 1000 µM,"[2]; Table 1(g), 1 mM",47.3%
CCCCC1CCCCC(=O)O1 (stereo not shown) [Epsilon-Decalactone],"A1V1 activation, % of agonist value",[1]; [4],52.9%
same,"V1 activation, % of agonist value","[2]; Table 1(f), 1 mM",47.7%
"CC(=O)c1cc(C)sc1C [3-Acetyl-2,5-dimethylthiophene]","A1V1 activation, % of agonist value",[1]; [4],84.9%
same,activation at 1000 µM,"[2]; Table 1(f), 1 mM",95.1%
Cc1ccc(C=O)s1 [5-Methyl-2-thiophenecarboxaldehyde],"A1V1 activation, % of agonist value",[1]; [5],111.4%
same,activation at 1000 µM,"[2]; Table 1(g), 1 mM",58.9%
Cc1ccc(C(C)CC=O)o1 (stereo not shown) [3-(5-Methyl-2-furyl)butanal],"A1V1 activation, % of agonist value",[1]; [4],91.6%
same,activation at 1000 µM,"[2]; Table 1(f), 1 mM",103%
"CCCCCCCC=CC=CC=O [2,4-Dodecadienal]","A1V1 activation, % of agonist value",[1]; [7],53.5%
same,activation at 100 µM,"[2]; Table 1(h), 100 μM (marked *)",199%
"Cc1ccc(C)c(O)c1 [2,5-Dimethylphenol]","A1V1 activation, % of agonist value",[1]; [6],34.2%
same,activation at 1000 µM,"[2]; Table 1(h), 1 mM",81.2%
O=C(O)c1ccc(O)c(O)c1 [Protocatechuic acid],"A1V1 activation, % of agonist value",[1]; [5],121.05%
same,activation at 1000 µM,"[2]; Table 1(g), 1 mM",60.6%
CC1(C)[C@@H](O[C@H]2O[C@H](C(=O)O)[C@@H](O)[C@H](O)[C@H]2O[C@@H]2O[C@H](C(=O)O)[C@@H](O)[C@H](O)[C@H]2O)CC[C@]2(C)[C@H]3C(=O)C=C4[C@@H]5C[C@@](C)(C(=O)O)CC[C@]5(C)CC[C@@]4(C)[C@]3(C)CC[C@@H]12 [18beta-Glycyrrhizinic acid],"A1V1 activation, % of agonist value",[1]; [5],162.7%
same,"V1 activation, % of agonist value","[2]; Table 1(g), 1 mM",100.9%
"CC(=O)S [Acetic acid, thio-]","A1V1 activation, % of agonist value",[1]; [5],115.1%
same,"V1 activation, % of agonist value","[2]; Table 1(g), 1 mM",61.9%
CCCCCCCC(=O)O [Octanoic acid],"A1V1 activation, % of agonist value",[1]; [4],83.4%
same,activation at 1000 µM,"[2]; Table 1(f), 1 mM",73.7%
O=C(O)[C@H](O)[C@@H](O)C(=O)O [L-(+)-Tartaric acid],"A1V1 activation, % of agonist value",[1]; [7],38.4%
same,"V1 activation, % of agonist value","[2]; Table 1(h), 100 μM (marked *)",60.4%
CCCCCCC1CCC(=O)O1 (stereo not shown) [4-Decanolide],"A1V1 activation, % of agonist value",[1]; [4],35.8%
same,activation at 1000 µM,"[2]; Table 1(f), 1 mM",40.9%
O=C(/C=C/C=C/c1ccc2c(c1)OCO2)N1CCCCC1 [Piperine],"A1V1 activation, % of agonist value",[1]; [6],57.1%
same,activation at 1000 µM,"[2]; Table 1(h), 1 mM",120%
"CC1SCCS1 [1,3-Dithiolane, 2-methyl-]","A1V1 activation, % of agonist value",[1]; [5],119.9%
same,activation at 1000 µM,"[2]; Table 1(g), 1 mM",66.2%
CCC(C)(O)CCc1ccccc1 (stereo not shown) [3-Methyl-1-phenyl-3-pentanol],"A1V1 activation, % of agonist value",[1]; [6],70.5%
same,activation at 1000 µM,"[2]; Table 1(h), 1 mM",100%
"COC(=O)c1ccccc1N(C)C [N,N-Dimethylanthranilic acid methyl ester]","A1V1 activation, % of agonist value",[1]; [8],77.15%
same,activation at 1000 µM,"[3]; Table 1(c), 1 mM",74.2%
"CCCCCC=CC=CCO [2,4-Decadienol]","A1V1 activation, % of agonist value",[1]; [8],52.2%
same,activation at 1000 µM,"[3]; Table 1(c), 1 mM",48.6%
CC(C)=CCC[C@](C)(O)[C@@H]1CC=C(C)CC1 [(−)-Alpha-Bisabolol],"A1V1 activation, % of agonist value",[1]; [8],83.53%
same,"A1 activation, % of agonist value","[3]; Table 1(c), 1 mM",71.26%
"c1ccc(CCCC2CCCO2)cc1 (stereo not shown) [Furan, tetrahydro-2-(3-phenylpropyl)-]","A1V1 activation, % of agonist value",[1]; [9],72.09%
same,activation at 1000 µM,"[3]; Table 1(e), 1 mM",26%
CCC(=O)OCCC(C)CCC=C(C)C (stereo not shown) [Citronellyl propionate],"A1V1 activation, % of agonist value",[1]; [10],43.2%
same,activation at 100 µM,"[3]; Table 1(c), 100 μM (*)",52.5%
COc1ccc2ncccc2c1 [6-Methoxyquinoline],"A1V1 activation, % of agonist value",[1]; [9],130.5%
same,activation at 1000 µM,"[3]; Table 1(e), 1 mM",57.8%
CCCCC/C=C\C/C=C\CCCCCCCC(=O)OC [Methyl linoleate],"A1V1 activation, % of agonist value",[1]; [9],81.7%
same,activation at 1000 µM,"[3]; Table 1(e), 1 mM",31%
CCC(=O)OCCOc1ccccc1 [Phenoxyethyl propionate],"A1V1 activation, % of agonist value",[1]; [8],79.34%
same,activation at 1000 µM,"[3]; Table 1(c), 1 mM",65.5%
CCOC(=O)C(C)S (stereo not shown) [Ethyl 2-mercaptopropionate],"A1V1 activation, % of agonist value",[1]; [10],70.2%
same,activation at 100 µM,"[3]; Table 1(c), 100 μM (*)",88.3%
COC(=O)c1ccc(OC)cc1 [Methyl p-anisate],"A1V1 activation, % of agonist value",[1]; [8],66.24%
same,activation at 1000 µM,"[3]; Table 1(c), 1 mM",57.5%
CC(C)C(=O)OCCOc1ccccc1 [Phenoxyethyl isobutyrate],"A1V1 activation, % of agonist value",[1]; [11],53.9%
same,activation at 1000 µM,"[3]; Table 1(d), 1 mM",81%
"CC(=O)c1cc(C)oc1C [3-Acetyl-2,5-dimethylfuran]","A1V1 activation, % of agonist value",[1]; [8],61%
same,activation at 1000 µM,"[3]; Table 1(c), 1 mM",73.5%
CCCCC/C=C\CCO [Cis-3-nonen-1-ol],"A1V1 activation, % of agonist value",[1]; [11],41.22%
same,activation at 1000 µM,"[3]; Table 1(d), 1 mM",55%
"C=C(C)C1CC=C(C)C(OC(C)=O)C1 (single isomer, unassigned; (-)) [(−)-Carvyl acetate]","A1V1 activation, % of agonist value",[1]; [8],37%
same,"A1 activation, % of agonist value","[3]; Table 1(c), 1 mM",31.2%
CC(C)=CCCC(C)C=O (stereo not shown) [Melonal],"A1V1 activation, % of agonist value",[1]; [8],57%
same,"A1 activation, % of agonist value","[3]; Table 1(c), 1 mM",52%
CC(C)CC(O)Cc1ccccc1 (stereo not drawn) [Alpha-Isobutylphenethyl alcohol],"A1V1 activation, % of agonist value",[1]; [8],58.62%
same,activation at 1000 µM,"[3]; Table 1(c), 1 mM",73%
CC/C=C\CCOC(=O)CC(C)C [cis-3-Hexenyl isovalerate],"A1V1 activation, % of agonist value",[1]; [11],51.6%
same,activation at 1000 µM,"[3]; Table 1(d), 1 mM",71.7%
O=C(Nc1ccccc1C(=O)O)c1ccccc1 [Benzoylanthranilic acid],"A1V1 activation, % of agonist value",[1]; [8],125.6%
same,"A1 activation, % of agonist value","[3]; Table 1(c), 1 mM",145.9%
C=CCCC(=O)/C=C/C1C(C)=CCCC1(C)C (stereo not drawn) [Allyl-alpha-ionone],"A1V1 activation, % of agonist value",[1]; [9],89.7%
same,"A1 activation, % of agonist value","[3]; Table 1(e), 1 mM",52.6%
CCCC/C=C/C=O [(E)-2-Heptenal],"A1V1 activation, % of agonist value",[1]; [8],96.6%
same,activation at 1000 µM,"[3]; Table 1(c), 1 mM",112%
"CC(S)CS (stereo not shown) [1,2-Propanedithiol]","A1V1 activation, % of agonist value",[1]; [10],65.4%
same,"A1V1 activation, % of agonist value",[1]; [8],73.3%
same,"A1 activation, % of agonist value","[3]; Table 1(c), 100 μM (*)",65.8%
same,"A1 activation, % of agonist value","[3]; Table 1(c), 1 mM",66%
